This is an account of results in patent US9790229B2, “Bruton's tyrosine kinase inhibitors” (priority 2009, dated 2017).

Chain of BTK (Q06187 whole entry): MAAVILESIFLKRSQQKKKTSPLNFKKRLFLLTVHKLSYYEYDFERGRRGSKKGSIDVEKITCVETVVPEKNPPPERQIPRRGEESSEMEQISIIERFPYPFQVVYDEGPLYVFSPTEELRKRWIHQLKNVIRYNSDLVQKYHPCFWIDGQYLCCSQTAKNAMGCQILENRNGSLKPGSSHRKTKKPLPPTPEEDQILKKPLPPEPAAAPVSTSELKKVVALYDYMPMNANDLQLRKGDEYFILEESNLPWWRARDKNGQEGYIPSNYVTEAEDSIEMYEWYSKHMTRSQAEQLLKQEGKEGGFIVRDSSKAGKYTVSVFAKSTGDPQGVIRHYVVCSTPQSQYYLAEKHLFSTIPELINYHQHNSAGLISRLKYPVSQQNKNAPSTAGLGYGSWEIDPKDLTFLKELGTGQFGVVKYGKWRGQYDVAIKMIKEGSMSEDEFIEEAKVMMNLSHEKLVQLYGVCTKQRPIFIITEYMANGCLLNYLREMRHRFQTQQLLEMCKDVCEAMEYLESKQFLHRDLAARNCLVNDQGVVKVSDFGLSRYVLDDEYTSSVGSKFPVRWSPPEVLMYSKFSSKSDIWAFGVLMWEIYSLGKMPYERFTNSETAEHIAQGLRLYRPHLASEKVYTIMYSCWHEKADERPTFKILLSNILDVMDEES

One test addresses BTK (Homo sapiens (Human), UniProt Q06187). The test is described as follows: In vitro BTK kinase assay: BTK-POLYGAT-LS ASSAY.
Conditions: not given
Compound `N[C@@H]1CCN(c2ccccc2NC(=O)Nc2cccc(C3CCCN(c4ncnc5[nH]ccc45)C3)c2)C1` (stereo partly shown) [compound 164] gave an IC50 of 100 to 999 nM.

For the compound `O=C(Nc1cc(C2CCCN(c3ncnc4[nH]ccc34)C2)ccc1OC(F)(F)F)C1CCCCC1` (stereo not shown) [Cmpd 87, N-(5-(1-(7H-pyrrolo[2,3-d]pyrimidin-4-yl)piperidin-3-yl)-2-(trifluoromethoxy)phenyl)cyclohexanecarboxamide], the IC50 fell in the range of 100 to 999 nM.

Compound `O=C(NCC1(O)CCCCC1)Nc1cccc(C2CCCN(c3ncnc4[nH]ccc34)C2)c1` (stereo not shown) [compound 184] showed an IC50 of 1000 to 10000 nM.

The compound `O=C(Nc1cccc(C2CCCN(c3ncnc4[nH]ccc34)C2)c1)[C@@H](O)c1ccccc1` (stereo partly drawn) [Cmpd 18, (2S)—N-(3-(1-(7H-pyrrolo[2,3-d]pyrimidin-4-yl)piperidin-3-yl)phenyl)-2-hydroxy-2-phenylacetamide] registered an IC50 of 1000 to 10000 nM.

In turn, `O=C(Nc1cccc(C2CCN(c3ncnc4[nH]ccc34)C2)c1)Nc1ccccc1N1CCCC1` (stereo not shown) [compound 171] registered an IC50 of 100 to 999 nM.

`CCCNc1ncnc(N2CCC[C@@H](N3CCCC(Nc4cc(F)cc(Cl)c4)C3=O)C2)c1F` (stereo partly drawn) [compound 288, (3′R)-3-(3-Chloro-5-fluorophenylamino)-1′-(5-fluoro-6-(propylamino)pyrimidin-4-yl)-1,3′-bipiperidin-2-one] displayed an IC50 of 1000 to 10000 nM.

`O=c1nc(Nc2cccc(C3CCCN(c4ncnc5[nH]ccc45)C3)c2)[nH]c2c1CCCC2` (stereo not shown) [compound 120, 2-(3-(1-(7H-pyrrolo[2,3-d]pyrimidin-4-yl)piperidin-3-yl)phenylamino)-5,6,7,8-tetrahydroquinazolin-4(1H)-one] came in with a 50% inhibitory concentration (IC50) of 1000 to 10000 nM.

Consider `O=C(NCC1CCCCCC1)Nc1cccc(C2CCCN(c3ncnc4[nH]ccc34)C2)c1` (stereo not shown) [compound 217], for which the IC50 is 1000 to 10000 nM.

For `CCNc1ncnc(N2CCC[C@@H](N3CCCC(Nc4cc(F)cc(Cl)c4)C3=O)C2)c1F` (stereo partly drawn) [compound 287, (3′R)-3-(3-Chloro-5-fluorophenylamino)-1′-(6-(ethylamino)-5-fluoropyrimidin-4-yl)-1,3′-bipiperidin-2-one], the IC50 was in the range of 1000 to 10000 nM.

Consider `O=C(Nc1cccc(C2CCCN(c3ncnc4[nH]ccc34)C2)c1)Nc1ccccc1C1CCCC1` (stereo not shown) [Cmpd 48, 1-(3-(1-(7H-pyrrolo[2,3-d]pyrimidin-4-yl)piperidin-3-yl)phenyl)-3-(2-cyclopentylphenyl)urea], for which the IC50 was in the range of 100 to 999 nM.

`O=C(Nc1cccc(C2CCCN(c3ncnc4[nH]ccc34)C2)c1)Nc1c(F)cc(F)cc1N1CCCC1` (stereo not shown) [Cmpd 49, 1-(3-(1-(7H-pyrrolo[2,3-d]pyrimidin-4-yl)piperidin-3-yl)phenyl)-3-(2,4-difluoro-6-(pyrrolidin-1-yl)phenyl)urea] displayed an IC50 of under 100 nM.

Compound `C[C@H]1CCCN1c1ccccc1NC(=O)Nc1cccc(C2CCCN(c3ncnc4[nH]ccc34)C2)c1` (stereo partly shown) [compound 188] had an IC50 of 1000 to 10000 nM.

`Nc1ncnc(N2CCCC(c3cccc(NC(=O)Nc4ccccc4)c3)C2)c1CCC(=O)O` (stereo not shown) [compound 206] came in with an IC50 of 1000 to 10000 nM.

Regarding `c1ccc(Nc2cccc(C3CCCN(c4ncnc5[nH]ccc45)C3)c2)nc1` (stereo not shown) [compound 140, N-(3-(1-(7H-pyrrolo[2,3-d]pyrimidin-4-yl)piperidin-3-yl)phenyl)pyridin-2-amine], the IC50 lay within 1000 to 10000 nM.

`Nc1ncnc(N2CCCC(c3cccc(NC(=O)Nc4ccccc4)c3)C2)c1Cl` (stereo not shown) [Cmpd 99, 1-(3-(1-(6-Amino-5-chloropyrimidin-4-yl)piperidin-3-yl)phenyl)-3-phenylurea] gave an IC50 of 1000 to 10000 nM.

The same test, now with this note: read-out: IC50 (10 uM ATP).
Turning to `Nc1ncnc(N2CCC[C@@H](N3CCCC(Nc4cc(Cl)cc(C(F)(F)F)c4)C3=O)C2)c1F` (stereo partly drawn) [compound 308, (3′R)-1′-(6-Amino-5-fluoropyrimidin-4-yl)-3-(3-chloro-5-(trifluoromethyl)phenylamino)-1,3′-bipiperidin-2-one], the IC50 is under 100 nM.

Staying with this test, now noted: read-out: IC50 (10 uM ATP); 10 uM ATP; in vitro Btk kinase assay, Example 41.
`O=C1[C@H](Nc2cc(Cl)cc(Cl)c2)CCN1[C@@H]1CCCN(c2ncnc3[nH]ccc23)C1` [compound 323, (R)-1-((R)-1-(7H-Pyrrolo[2,3-d]pyrimidin-4-yl)piperidin-3-yl)-3-(3,5-dichlorophenylamino)pyrrolidin-2-one]: the IC50 is under 100 nM.

Take `Nc1cc(N2CCC[C@@H](N3CCCC(Nc4cc(F)cc(Cl)c4)C3=O)C2)ncn1` (stereo partly shown) [compound 361]: the IC50 is under 100 nM.

On to `COc1ccc(C2CCCN(c3ncnc4[nH]ccc34)C2)cc1NC(=O)Nc1ccccc1` (stereo not shown) [compound 266], for which the IC50 is over 10000 nM.

As to `O=C(Nc1cccc(C2CCCN(c3ncnc4[nH]ccc34)C2)c1)Nc1ccccc1N1CC[C@H](O)C1` (stereo partly shown) [compound 155], the IC50 is under 100 nM.

`O=C(Nc1cccc(C2CCCN(c3ncnc4[nH]ccc34)C2)c1)Nc1c(F)cccc1N1CCCC1` (stereo not shown) [compound 146]: the IC50 was under 100 nM.

With `CN1CCC(CNC(=O)Nc2cccc(C3CCCN(c4ncnc5[nH]ccc45)C3)c2)CC1` (stereo not shown) [compound 245], the IC50 was over 10000 nM.

Regarding `CC(=O)Nc1cc(N2CCCC(c3cccc(NC(=O)Nc4ccccc4)c3)C2)ncn1` (stereo not shown) [Cmpd 92, N-(6-(3-(3-(3-phenylureido)phenyl)piperidin-1-yl)pyrimidin-4-yl)acetamide], the IC50 was over 10000 nM.

As for `Nc1ncnc(N2CC[C@H](C(F)(F)F)[C@@H](N3CCC[C@@H](Nc4cc(Cl)cc(Cl)c4)C3=O)C2)c1F` [compound 337, trans (3R)-1′-(6-Amino-5-fluoropyrimidin-4-yl)-3-(3,5-dichlorophenylamino)-4′-(trifluoromethyl)-1,3′-bipiperidin-2-one], the IC50 was under 100 nM.

Consider `Nc1ncnc(N2C[C@@H](F)C[C@@H](N3CCCC(Nc4cc(Cl)cc(Cl)c4)C3=O)C2)c1F` (stereo partly drawn) [compound 280, (3′R,5′S)-1′-(6-Amino-5-fluoropyrimidin-4-yl)-3-(3,5-dichlorophenylamino)-5′-fluoro-1,3′-bipiperidin-2-one], for which the IC50 was under 100 nM.

In the case of `CN(C(=O)Nc1ccccc1)c1cccc(C2CCCN(c3ncnc4[nH]ccc34)C2)c1` (stereo not shown) [compound 136, 1-(3-(1-(7H-Pyrrolo[2,3-d]pyrimidin-4-yl)piperidin-3-yl)phenyl)-1-methyl-3-phenylurea], the IC50 is over 10000 nM.

For `O=C(Nc1cc(C2CCCN(c3ncnc4[nH]ccc34)C2)cc(C(F)(F)F)c1)c1ccccc1` (stereo not shown) [Cmpd 84, N-(3-(1-(7H-pyrrolo[2,3-d]pyrimidin-4-yl)piperidin-3-yl)-5-(trifluoromethyl)phenyl)benzamide], the IC50 is over 10000 nM.

Consider `Nc1ncnc(N2CC[C@H](O)[C@@H](N3CCCC(Nc4cc(F)cc(Cl)c4)C3=O)C2)c1F` (stereo partly drawn) [compound 324, trans-1′-(6-Amino-5-fluoropyrimidin-4-yl)-3-(3-chloro-5-fluorophenylamino)-4′-hydroxy-1,3′-bipiperidin-2-one], for which the IC50 was under 100 nM.

Turning to `Nc1ncnc(N2CCC[C@@H](N3CCCC(Nc4cc(F)cc(Cl)c4)C3=O)C2)c1F` (stereo in doubt) [compound 314, (3S,3′R)-1′-(6-Amino-5-fluoropyrimidin-4-yl)-3-(3-chloro-5-fluorophenylamino)-1,3′-bipiperidin-2-one], the IC50 is under 100 nM.

In the case of `O=C(Nc1ccccc1)Nc1ccc(C2CCCN(c3ncnc4[nH]ccc34)C2)cc1` (stereo not shown) [compound 268], the IC50 was over 10000 nM.

`O=C(Nc1cccc(C2CCCN(c3ncnc4[nH]ccc34)C2)c1)Nc1cnccc1N1CCCC1` (stereo not shown) [compound 224]: the IC50 is over 10000 nM.
